From ChEMBL document CHEMBL5375989, “Pioneering 4,11-Dioxo-4,11-dihydro-1H-anthra[2,3-d]imidazol-3-ium Compounds as Promising Survivin Inhibitors by Targeting ILF3/NF110 for Cancer Therapy” (J Med Chem, 2023)
The source made the active and inactive calls. The rule behind the calls is not given here.

Columns and labels:
[1] = Toxicity in BALB/c mouse assessed as appearance of spotty necrosis of hepatocytes at 2 mg/kg by H and E staining based analysis; format: organism-based; details: in vivo
[2] = Toxicity in BALB/c mouse assessed as appearance of severe damage to spleen tissue at 2 mg/kg by H and E staining based analysis; format: organism-based; details: in vivo
[3] = Toxicity in BALB/c mouse assessed as appearance of acidophilic degeneration of myocardial cells at 2 mg/kg by H and E staining based analysis; format: organism-based; details: in vivo
A549 [4] = experiment: Antitumor activity against human A549 cells xenografted in BALB/c nude mouse assessed as decrease in tumor cell proliferation at 2 mg/kg measured after 14 days by Ki67 staining based analysis; format: functional, organism-based; details: time 14.0 day
A549 [5] = experiment: Antitumor activity against human A549 cells xenografted in BALB/c nude mouse assessed as inhibition of tumor growth at 2 mg/kg, sc administered every 2 days for 14 days; format: functional, organism-based; details: time 14.0 day
A549 [6] = experiment: Antitumor activity against human A549 cells xenografted in BALB/c nude mouse assessed as increase in apoptosis at 2 mg/kg measured after 14 days by tunel staining based analysis; format: functional, organism-based; details: time 14.0 day
[7] = Toxicity in BALB/c nude mouse assessed as side effects at 2 mg/kg, sc administered every 2 days for 14 days; format: organism-based; details: in vivo, 336 h, time 14 day
A549 [8] = experiment: Antitumor activity against human A549 cells xenografted in BALB/c nude mouse assessed as appearance of various size of tumor necrosis at 2 mg/kg measured after 14 days by H and E staining based analysis; format: functional, organism-based; details: time 14.0 day
A549 [9] = experiment: Antitumor activity against human A549 cells xenografted in BALB/c nude mouse assessed as decrease in tumor cell proliferation at 2 mg/kg measured after 14 days by PCNA staining based analysis; format: functional, organism-based; details: time 14.0 day
[10] = Toxicity in BALB/c nude mouse assessed as effect on body weight at 2 mg/kg, sc administered every 2 days for 14 days; format: organism-based; details: in vivo, 336 h, time 14 day
[11] = biological target: T1, Interleukin enhancer-binding factor 3 (Homo sapiens, UniProt Q12906); experiment: Binding affinity to ILF3 (unknown origin) assessed as dissociation constant at upto 1 uM by SPR method
T1 sequence (Q12906 whole entry): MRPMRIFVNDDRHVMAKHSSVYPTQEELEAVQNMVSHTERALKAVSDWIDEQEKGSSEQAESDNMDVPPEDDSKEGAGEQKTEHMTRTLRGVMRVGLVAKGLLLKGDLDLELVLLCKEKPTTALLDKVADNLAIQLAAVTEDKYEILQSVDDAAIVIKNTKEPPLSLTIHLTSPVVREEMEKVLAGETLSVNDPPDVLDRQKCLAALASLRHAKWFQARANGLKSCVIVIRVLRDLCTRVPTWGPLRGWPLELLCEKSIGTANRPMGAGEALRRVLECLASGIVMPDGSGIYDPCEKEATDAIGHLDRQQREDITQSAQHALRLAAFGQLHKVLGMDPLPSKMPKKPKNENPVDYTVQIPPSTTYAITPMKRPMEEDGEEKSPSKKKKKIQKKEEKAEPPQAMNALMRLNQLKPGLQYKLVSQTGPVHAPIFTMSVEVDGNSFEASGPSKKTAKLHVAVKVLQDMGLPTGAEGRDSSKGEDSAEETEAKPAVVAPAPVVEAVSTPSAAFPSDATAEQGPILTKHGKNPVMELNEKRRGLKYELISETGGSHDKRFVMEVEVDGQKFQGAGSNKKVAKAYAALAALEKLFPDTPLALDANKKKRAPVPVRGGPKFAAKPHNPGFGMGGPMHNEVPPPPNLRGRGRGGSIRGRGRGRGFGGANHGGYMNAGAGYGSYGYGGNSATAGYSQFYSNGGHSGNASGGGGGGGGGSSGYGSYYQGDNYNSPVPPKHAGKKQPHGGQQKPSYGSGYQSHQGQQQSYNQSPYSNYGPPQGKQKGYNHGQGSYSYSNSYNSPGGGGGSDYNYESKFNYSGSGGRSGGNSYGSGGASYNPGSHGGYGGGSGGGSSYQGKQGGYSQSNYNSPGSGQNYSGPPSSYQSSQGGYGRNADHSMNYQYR

[12] = Drug uptake in Sprague-Dawley rat blood at 2 mg/kg measured after 2 hrs by UPLC-3Q analysis; format: ADME, organism-based; details: in vivo
[13] = Selectivity index, ratio of IC50 for mouse L929 cells to IC50 for human A549 cells; format: toxicity; details: L929 cells and A549 cells, read-out: Ratio IC50
[14] = Toxicity in BALB/c mouse assessed as varying degree of multifocal alveolar luminal hemorrhage at 2 mg/kg by H and E staining based analysis; format: organism-based; details: in vivo
[15] = Toxicity in BALB/c mouse assessed as disappearance of nuclei at 2 mg/kg by H and E staining based analysis; format: organism-based; details: in vivo
[16] = Antiproliferative activity against human MRC5 cells assessed as inhibition of cell growth measured after 48 hrs by MTT assay; format: toxicity, cell-based; details: human, MRC5 cells
[17] = Toxicity in BALB/c mouse assessed as appearance of condensed nuclei at 2 mg/kg by H and E staining based analysis; format: organism-based; details: in vivo
[18] = Antiproliferative activity against human HUVEC cells assessed as inhibition of cell growth measured after 48 hrs by MTT assay; format: toxicity, cell-based; details: human, HUVEC cells
[19] = Toxicity in BALB/c mouse assessed as morphological changes with karyopyknosis in spleen at 2 mg/kg by H and E staining based analysis; format: organism-based; details: in vivo
[20] = Drug distribution in BALB/C nude mouse heart xenografted with human A549 cells at 2 mg/kg measured after 2 to 6 hrs by UPLC-3Q analysis; format: ADME, organism-based; details: in vivo, time 2-6 hrs
[21] = Toxicity in BALB/c mouse assessed as morphological changes with karyorrhexis in spleen at 2 mg/kg by H and E staining based analysis; format: organism-based; details: in vivo
[22] = Toxicity in BALB/c mouse assessed as appearance of renal tubular necrosis in cortex at 2 mg/kg by H and E staining based analysis; format: organism-based; details: in vivo
[23] = Drug metabolism in BALB/C nude mouse kidney xenografted with human A549 cells at 2 mg/kg measured after 2 to 6 hrs by UPLC-3Q analysis; format: ADME, organism-based; details: in vivo, time 2-6 hrs
[24] = Antiproliferative activity against mouse NIH3T3 cells assessed as inhibition of cell growth measured after 48 hrs by MTT assay; format: toxicity, cell-based; details: mouse, NIH3T3 cells

Question: Which results are given for `COc1cccc2c1C(=O)c1c(O)c3c(c(O)c1C2=O)C[C@@](O)(C(=O)CO)C[C@@H]3O[C@H]1C[C@H](N)[C@H](O)[C@H](C)O1` [DOXORUBICIN]?
Answer: Activity [1]: Toxic; Activity [2]: Toxic; Activity [3]: Toxic; Activity (A549 [4]): Active; Activity (A549 [5]): Active; Activity (A549 [6]): Active; Activity [7]: Toxic; Activity (A549 [8]): Active; Activity (A549 [9]): Active; Activity [10]: Toxic

Question: With `COCCn1c2c([n+](Cc3cnccn3)c1C)C(=O)c1ccccc1C2=O.[Br-]` [SEPANTRONIUM BROMIDE] as the compound, how does the Kd [11] read?
Answer: 0.571 µM

Question: And the Drug uptake [12]?
Answer: Not Active

Question: What about the selectivity ratio [13] of the same compound?
Answer: 970

Question: What about the Activity [14] of the same compound?
Answer: Toxic

Question: And the Activity [15]?
Answer: Toxic

Question: What about the IC50 at 48 h [16] of the same compound?
Answer: 1.94 µM

Question: And the Activity [17]?
Answer: Toxic

Question: What about the IC50 at 48 h [18] of the same compound?
Answer: 0.92 µM

Question: And the Activity [19]?
Answer: Toxic

Question: What about the Drug uptake [20] of the same compound?
Answer: Active

Question: And the Activity [21]?
Answer: Toxic

Question: What about the Activity [22] of the same compound?
Answer: Toxic

Question: And the Drug metabolism [23]?
Answer: Metabolite_Detected

Question: And the IC50 at 48 h [24]?
Answer: 13.6 µM
